In PubChem BioAssay (NCI):
Where “and” joins values, the source holds several entries; their conditions need not be identical. Identical values can stand only once.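 These data come from cells grown in 96-well plates and exposed to compound for 48 hours at five concentrations. GI50: concentration for 50% inhibition of growth. TGI is the concentration that stops growth completely.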

Experiments:
Test in all cases: DTP human tumour cell line panel, 48 h
MOLT-4 leukemia = tested on: MOLT-4 leukemia
UACC-62 melanoma = tested on: UACC-62 melanoma
UACC-257 melanoma = tested on: UACC-257 melanoma
COLO 205 colon = tested on: COLO 205 colon
SR leukemia = tested on: SR leukemia
MCF7 breast = tested on: MCF7 breast
EKVX NSCLC = tested on: EKVX NSCLC
SNB-75 CNS = tested on: SNB-75 CNS
XF 498 CNS = tested on: XF 498 CNS
KM20L2 colon = tested on: KM20L2 colon
DMS 114 small cell lung = tested on: DMS 114 small cell lung

Compound | GI50 (MOLT-4 leukemia) | TGI (MOLT-4 leukemia) | GI50 (UACC-62 melanoma) | TGI (UACC-62 melanoma) | GI50 (UACC-257 melanoma) | TGI (UACC-257 melanoma) | GI50 (COLO 205 colon) | TGI (COLO 205 colon) | GI50 (SR leukemia) | TGI (SR leukemia) | GI50 (MCF7 breast) | TGI (MCF7 breast) | GI50 (EKVX NSCLC) | TGI (EKVX NSCLC) | GI50 (SNB-75 CNS) | TGI (SNB-75 CNS) | TGI (XF 498 CNS) [µM] | TGI (KM20L2 colon) [µM] | TGI (DMS 114 small cell lung) | GI50 (XF 498 CNS) [nM]
CC1(C)N=C(N)N=C(N)N1c1ccc(CCCCc2ccc(Cl)c(S(=O)(=O)F)c2)c(Cl)c1 | 622 nM | 14.8 µM | 372 nM | > 47.9 µM | 3.78 µM | 18.4 µM | 1710 nM | 7.98 µM | 186 nM | 3.36 µM | 529 nM | 16.9 µM | 2810 nM | 37.7 µM | 10.4 µM | > 52.5 µM | – | – | – | –
CC1(Br)Cc2ccccc2C1=O (configuration not stated) | 423 nM | 9.91 µM and 3.4 µM | – | 3.63 µM | 13.3 µM | 29.2 µM | – | 17.5 µM | 129 nM | 1.25 µM | 2220 nM | 8.52 µM | – | 11.2 µM | – | 27 µM | – | – | – | –
O=C(NNc1ccccc1)C(=O)NNc1ccccc1 | 1600 nM | > 100 µM | 430 nM | > 100 µM | > 100 µM | > 100 µM | 2730 nM | 48.5 µM | 919 nM | > 100 µM | 5670 nM | > 100 µM | > 100000 nM | > 100 µM | 11.6 µM | > 100 µM | – | – | – | –
CC1CCN(C(=O)OCc2nc3nc(Cl)nc(N4CCOCC4)c3[nH]2)CC1 | 704 nM | 4.04 µM | 1290 nM | 2.55 µM | 1.73 µM | 3.76 µM | 1750 nM | 4.99 µM | 331 nM | 3.31 µM | 650 nM | 2.38 µM | 1480 nM | 3.3 µM | 1.06 µM | 2.29 µM | – | – | – | –
CC(C)=CCc1cc2c(cc1O)OC[C@H]1c3cc4c(cc3O[C@@H]21)OCO4 | – | 57.4 µM | – | > 100 µM | – | > 100 µM | – | > 100 µM | – | > 100 µM | – | 58.7 µM | – | 76.9 µM | – | > 100 µM | – | – | – | –
C=CCc1ccc(O)c(-c2ccc(O)c(CC=C)c2)c1 | 4940 nM | > 39.9 µM | 16000 nM | 30 µM | 17.1 µM | 40.6 µM | 18500 nM | 34.1 µM | 14800 nM | > 100 µM | 8060 nM | 26.2 µM | 7110 nM | 23.3 µM | 22.1 µM | > 46.6 µM | – | – | – | –
CN(C)C/C=C/C(=O)Nc1cc2c(Nc3ccc(F)c(Cl)c3)ncnc2cc1O[C@H]1CCOC1 | 2430 nM and 1450 nM | 11.3 µM and 7.24 µM | 2390 nM and 3280 nM | 7.49 µM and > 10 µM | 1.46 µM and 3.34 µM | 3.09 µM and > 10 µM | 998 nM and 887 nM | 3.09 µM and > 5.59 µM | 3460 nM and 1260 nM | 13.2 µM and 6.5 µM | 2230 nM and 2120 nM | 9.14 µM and > 10 µM | < 10 nM and 3 nM | 11.3 µM and > 10 µM | 1.48 µM and 0.983 µM | 10.7 µM and 8.33 µM | – | – | – | –
O=[N+]([O-])c1cccc2ccc(N/N=C/c3ccccc3O)nc12 | 313 nM | 1.16 µM | > 100000 nM | > 100 µM | > 100 µM | > 100 µM | 1910 nM | > 19.8 µM | 148 nM | 7.03 µM | 2340 nM | > 100 µM | > 100000 nM | > 100 µM | > 37.8 µM | > 70.6 µM | – | – | – | –
C=CCN1CCC23c4c5ccc(O)c4OC2C(=NN=C2CCC4(O)C6Cc7ccc(O)c8c7C4(CCN6CC=C)C2O8)CCC3(O)C1C5 (configuration not stated) | – | > 100 µM | – | 44.4 µM | – | 53.2 µM | – | 42.1 µM | – | – | – | – | – | > 100 µM | – | 34.2 µM | 32.9 | 47.8 | 60800 nM | –
COC(=O)c1ccc2c(c1)/C(=C\c1cc(Br)c(O)c(Br)c1)C(=O)N2 | 7590 nM | > 24.1 µM | 2770 nM | 8.8 µM | 4.24 µM | 15.5 µM | 6800 nM | > 25 µM | 8110 nM | > 25 µM | 8010 nM | > 25 µM | 15800 nM | > 25 µM | 5.4 µM | > 25 µM | – | – | – | –
C/C(=N\NC(=S)N1CCCCCC1)c1ccccn1 | – | 3.46 µM and > 31.9 µM | – | 0.33 µM and 0.268 µM | – | 0.83 µM and 0.969 µM | – | 0.0286 µM | – | – | – | 0.0245 µM | 53 nM | 1.84 µM and 3.34 µM | 0.277 µM | 1.18 µM and 2.54 µM | – | – | 138 nM and 29.8 nM | 14.1
C[Si](C)(C)/C(I)=C/CO | – | 35.3 µM | – | 52.9 µM | – | 45.2 µM | – | 31.1 µM | – | – | – | – | – | 71.7 µM | – | > 100 µM | 31.9 | 55.9 | – | –
CCOC(=O)/C=C/c1ccc(C#Cc2ccccc2)cc1 | > 100000 nM | > 100 µM | 83500 nM | > 100 µM | > 100 µM | > 100 µM | > 100000 nM | > 100 µM | 10300 nM | > 100 µM | > 100000 nM | > 100 µM | 60.8 nM | 43.1 µM | 31.8 µM | 97.1 µM | – | – | – | –
C[C@@]12CCC[C@@](C)(C(=O)O)C1CC[C@]13CC(=O)[C@](CO)(C1)[C@@H](O)CC32 (some centres not stated) | > 100000 nM | > 100 µM | > 100000 nM | > 100 µM | > 100 µM | > 100 µM | > 100000 nM | > 100 µM | > 100000 nM | > 100 µM | > 100000 nM | > 100 µM | > 100000 nM | > 100 µM | > 100 µM | > 100 µM | – | – | – | –
Cc1ccc(Nc2oc(-c3ccccc3)nc2[P+](c2ccccc2)(c2ccccc2)c2ccccc2)cc1 | 563 nM | 2.52 µM | 687 nM | 2.01 µM | 0.718 µM | 2.75 µM | 1330 nM | 3.1 µM | 698 nM | 2.44 µM | 433 nM | 1.98 µM | 616 nM | 2.38 µM | 1.15 µM | 3.71 µM | – | – | – | –
CC12CCC3c4ccc(O)cc4CCC3C1C/C(=N\O)C2O (configuration not stated) | – | > 100 µM | – | > 100 µM | – | > 100 µM | – | > 100 µM | – | > 100 µM | – | > 100 µM | – | > 100 µM | – | > 100 µM | – | – | – | –
CCc1ccc(/C=C/c2ccc(O)c3ncccc23)[n+](C)c1 | 3720 nM | > 100 µM | > 21500 nM | > 100 µM | 16.9 µM | > 100 µM | 8070 nM | > 89.8 µM | 2760 nM | > 25.9 µM | 7990 nM | > 90.7 µM | 777 nM | > 100 µM | > 100 µM | > 100 µM | – | – | – | –
